Results as given in article PMC6199744, “Development of Chemical Proteomics for the Folateome and Analysis of the Kinetoplastid Folateome” (ACS Infectious Diseases, 2018).
Read-outs that look alike come from different tables or passages of the source.

Tested on: T. brucei lysate proteins
Type: binding, Trypanosoma brucei
Settings: vehicle control = 1

NCCCNc1ccc(C(=O)NC(CCC(=O)O)C(=O)O)cc1 (centres unmarked) [compound 7]
fold change vs vehicle control (protein TB427.04.760 GAMMA-ADAPTIN 1, PUTATIVE): 0.84
fold change (protein TB427.05.1210 SHORT-CHAIN DEHYDROGENASE, PUTATIVE): 0.95
fold change vs vehicle control (protein TB427.05.1320 HY[…], CONSERVED): 0.92
fold change (protein TB427.05.3030 INTR[…] PROTEIN IFT122, PUTATIVE): 0.96
fold change vs vehicle control (protein TB427.05.4560 GUANINE DEAMINASE, PUTATIVE): 0.91
fold change vs vehicle control (protein TB427.06.1070 HY[…], CONSERVED): 1.17
fold change (protein TB427.06.2550 RNA-BINDING PROTEIN, PUTATIVE): 1.51
fold change (protein TB427.06.3500 ENDOSOMAL T[…] RME-8, PUTATIVE): 0.89
fold change (protein TB427.06.3630 SPHINGOSINE 1-PHOSPHATE LYASE, PUTATIVE): 0.95
fold change (protein TB427.06.3650 ADP-RI[…], PUTATIVE): 0.97
fold change (protein TB427.06.3670 PAR[…] COMPONENT, PUTATIVE): 1
fold change (protein TB427.06.700 ALANYL-TRNA SYNTHETASE, PUTATIVE): 0.84
fold change vs vehicle control (protein TB427.07.1300 PROTEIN DISULFIDE ISOMERASE, PUTATIVE): 1.3
fold change vs vehicle control (protein TB427.07.3160 DYNEIN HEAVY CHAIN, CYTOSOLIC, PUTATIVE): 0.87
fold change (protein TB427.07.3980 IMMU[…], PUTATIVE): 0.91
fold change vs vehicle control (protein TB427.07.4170 FATTY ACID ELONGASE, PUTATIVE): 0.97
fold change (protein TB427.07.4180 FATTY ACID ELONGASE, PUTATIVE): 1.1
fold change (protein TB427.07.4970 GLUTAMINE SYNTHETASE, PUTATIVE): 0.98
fold change vs vehicle control (protein TB427.07.7500 THYMINE-7-HYDROXYLASE, PUTATIVE): 0.95
fold change vs vehicle control (protein TB427.08.1210 HY[…], CONSERVED): 1.49
fold change (protein TB427.08.2060 HY[…], CONSERVED): 0.91
fold change (protein TB427.08.2080 HY[…], CONSERVED): 0.91
fold change (protein TB427.08.3150 T-COMPLEX PROTEIN 1, GAMMA SUBUNIT, PUTATIVE): 0.97
fold change (protein TB427.08.4210 HY[…], CONSERVED): 0.91
fold change (protein TB427.08.5760 HY[…], CONSERVED): 0.99
fold change (protein TB427.10.10350 PROTEIN KINASE, PUTATIVE): 0.62
fold change (protein TB427.10.10360 MICROTUBULE-[…], PUTATIVE): 0.85
fold change (protein TB427.10.1060 T-COMPLEX PROTEIN 1, DELTA SUBUNIT, PUTATIVE): 0.96
fold change vs vehicle control (protein TB427.10.10610 PROTEIN TYROSINE PHOSPHATASE, PUTATIVE): 1.47
fold change (protein TB427.10.1070 CELL DIVISION PROTEIN KINASE 2 HOMOLOG 1 (CRK1)): 0.93
fold change vs vehicle control (protein TB427.10.11760 PUMILIO/PUF RNA BINDING PROTEIN 6): 0.99
fold change (protein TB427.10.12710 HEAT SHOCK PROTEIN, PUTATIVE): 0.77
fold change vs vehicle control (protein TB427.10.12820 HY[…], CONSERVED): 0.93
fold change vs vehicle control (protein TB427.10.12890 BI[…]-TRNA SYNTHETASE, PUTATIVE): 0.98
fold change (protein TB427.10.14140 PYRUVATE KINASE 1): 0.86
fold change vs vehicle control (protein TB427.10.14180 PROTEIN TRANSPORT PROTEIN SEC13, PUTATIVE): 0.89
fold change vs vehicle control (protein TB427.10.14470 INTR[…] PROTEIN IFT140, PUTATIVE): 1.33
fold change (protein TB427.10.1450 HY[…], CONSERVED): 0.88
fold change (protein TB427.10.14860 HY[…], CONSERVED): 0.95
fold change vs vehicle control (protein TB427.10.14950 RNA BINDING PROTEIN, PUTATIVE): 1.37
fold change (protein TB427.10.2350 PYRUVATE DEH[…] E3 BINDING PROTEIN, PUTATIVE): 0.93
fold change (protein TB427.10.2440 METACASPASE MCA4): 0.83
fold change vs vehicle control (protein TB427.10.3470 HY[…], CONSERVED): 1.2
fold change (protein TB427.10.4610 […]-MANNOSE SYNTHASE, PUTATIVE): 0.98
fold change vs vehicle control (protein TB427.10.5810 HY[…], CONSERVED): 0.88
fold change (protein TB427.10.5840 T[…] 1-BETA, PUTATIVE): 0.92
fold change (protein TB427.10.5850 HY[…], CONSERVED): 0.88
fold change (protein TB427.10.6150 […]/BEIGE PROTEIN, PUTATIVE): 0.99
fold change (protein TB427.10.6310 MAJOR VAULT PROTEIN, PUTATIVE): 0.93
fold change (protein TB427.10.730 ATP SYNTHASE, PUTATIVE): 0.84
fold change vs vehicle control (protein TB427.10.7410 SUCCINYL-COA LIGASE GDP-FORMING] BETA-CHAIN, PUTATIVE): 0.94
fold change (protein TB427.10.8190 T-COMPLEX PROTEIN 1, THETA SUBUNIT, PUTATIVE): 0.94
fold change vs vehicle control (protein TB427.10.8230 PROTEIN DISULFIDE ISOMERASE): 1.25
fold change (protein TB427.10.8720 HY[…], CONSERVED): 1
fold change vs vehicle control (protein TB427.10.8850 HY[…], CONSERVED): 0.93
fold change (protein TB427.10.9890 HY[…], CONSERVED): 0.65
fold change (protein TB927.10.12960 RAS-RELATED PROTEIN RAB-5): 0.98
fold change (protein TB927.10.1550 […]-ATP-ASE SUBUNIT 5): 0.9
fold change (protein TB927.1.2330 BETA TUBULIN): 0.99
fold change vs vehicle control (protein TB927.10.2890 ENOLASE): 0.91
fold change (protein TB927.10.3660 ASPARTATE AMINOTRANSFERASE): 0.96
fold change (protein TB927.10.4180 TFIIF-[…] PHOSPHATASE, PUTATIVE): 0.87
fold change (protein TB927.10.5500 HY[…], CONSERVED): 0.99
fold change (protein TB927.10.6050 CLATHRIN HEAVY CHAIN): 0.87
fold change vs vehicle control (protein TB927.10.8030 HY[…], CONSERVED): 1
fold change vs vehicle control (protein TB927.10.8940 HY[…], CONSERVED): 0.97
fold change (protein TB927.2.100 RETRO[…] SPOT (RHS) PROTEIN, PUTATIVE,RETRO[…] SPOT PROTEIN 1 (RHS1), PUTATIVE): 0.9
fold change vs vehicle control (protein TB927.2.2440 […]-ATPASE SUBUNIT 6): 1.85
fold change (protein TB927.2.3800 MRNA […], PUTATIVE): 0.77
fold change (protein TB927.3.1240 PROTEIN PHOSPHATASE 2A, PUTATIVE): 0.77
fold change vs vehicle control (protein TB927.3.2960 INOSINE-ADENOSINE-GUANOSINE-[…]): 0.82
fold change (protein TB927.3.3190 SERINE/THREONINE-PROTEIN KINASE, PUTATIVE): 0.89
fold change vs vehicle control (protein TB927.3.3450 ADP-RI[…]-LIKE PROTEIN 3A, PUTATIVE): 0.76
fold change (protein TB927.3.3780 TRYPAREDOXIN): 0.9
fold change vs vehicle control (protein TB927.3.5120 HY[…], CONSERVED (Ankyrin repeats (3 copies), putative)): 1.2
fold change vs vehicle control (protein TB927.3.740 HY[…], CONSERVED): 0.97
fold change (protein TB927.4.3590 T[…] 1-BETA, PUTATIVE): 0.77
fold change (protein TB927.5.3220 SIGNAL PEPTIDASE TYPE I, PUTATIVE): 0.9
fold change vs vehicle control (protein TB927.5.4440 DYNEIN LIGHT CHAIN, PUTATIVE): 1.1
fold change (protein TB927.6.2200 HY[…], CONSERVED): 0.97
fold change (protein TB927.6.4460 S-ADENOSYLMETHIONINE DECARBOXYLASE): 0.97
fold change vs vehicle control (protein TB927.6.560 CYSTEINE PEPTIDASE C (CPC)): 1
fold change vs vehicle control (protein TB927.7.4470 HY[…], CONSERVED): 1.22
fold change (protein TB927.7.6320 HY[…], CONSERVED): 0.96
fold change vs vehicle control (protein TB927.7.7430 ATP SYNTHASE ALPHA CHAIN, MIT[…]): 0.93
fold change (protein TB927.8.1990 PEROXIDOXIN): 0.67
fold change vs vehicle control (protein TB927.8.4810 PROHIBITIN 1): 0.99
fold change (protein TB927.8.890 SMALL GTP-BINDING PROTEIN RAB1, PUTATIVE): 0.93
fold change (protein TB-292 MEMBRANE ASSOCIATED PROTEIN): 0.93
